# Biological target: CD73 (Homo sapiens (Human), UniProt P21589)
# Experiment: Biochemical Assay (CD73 inhibition, AMP hydrolysis, Malachite Green readout)
# Settings: CD73 0.3208 nM, AMP 15 μM, Tris-HCl pH 7.4, Malachite Green absorbance
# Chain of CD73 (P21589 27-574): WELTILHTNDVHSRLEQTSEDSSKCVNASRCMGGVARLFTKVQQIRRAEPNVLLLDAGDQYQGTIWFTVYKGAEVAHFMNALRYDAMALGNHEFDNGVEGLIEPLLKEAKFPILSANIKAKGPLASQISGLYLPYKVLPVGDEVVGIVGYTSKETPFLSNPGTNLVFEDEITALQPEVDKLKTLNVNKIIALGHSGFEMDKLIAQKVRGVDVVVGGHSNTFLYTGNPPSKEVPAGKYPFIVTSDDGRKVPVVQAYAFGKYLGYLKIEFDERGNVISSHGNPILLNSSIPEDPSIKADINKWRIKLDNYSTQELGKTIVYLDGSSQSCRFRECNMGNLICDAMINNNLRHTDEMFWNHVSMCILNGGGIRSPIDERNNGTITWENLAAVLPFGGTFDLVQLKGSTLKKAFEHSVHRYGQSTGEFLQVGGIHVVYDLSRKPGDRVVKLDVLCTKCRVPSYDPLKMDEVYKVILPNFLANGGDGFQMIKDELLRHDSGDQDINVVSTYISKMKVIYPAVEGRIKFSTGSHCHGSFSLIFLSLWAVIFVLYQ
row,SMILES,IC50
1,"O=P(O)(O)COC[C@H]1O[C@@H](n2ncc3c(NCc4cccc(Cl)c4F)nc(Cl)nc32)[C@H](O)[C@@H]1O [Example 58, ((((2R,3S,4R,5R)-5-(6-chloro-4-((3-chloro-2-fluorobenzyl)amino)-1H-pyrazolo[3,4-d]pyrimidin-1-yl)-3,4-dihydroxytetrahydrofuran-2-yl)methoxy)methyl)phosphonic acid]",≤ 500 nM
2,"CCNc1nc(Cl)nc2c1cnn2[C@@H]1O[C@H](COCP(=O)(O)O)[C@@H](O)[C@H]1O [Example 43, ((((2R,3S,4R,5R)-5-(6-chloro-4-(ethylamino)-1H-pyrazolo[3,4-d]pyrimidin-1-yl)-3,4-dihydroxytetrahydrofuran-2-yl)methoxy)methyl)phosphonic acid]",≤ 500 nM
3,"O=P(O)(O)COC[C@H]1O[C@@H](n2ncc3c(NCc4ccccc4Cl)nc(CO)nc32)[C@H](O)[C@@H]1O [Example 17, ((((2R,3S,4R,5R)-5-(4-((2-Chlorobenzyl)amino)-6-(hydroxymethyl)-1H-pyrazolo[3,4-d]pyrimidin-1-yl)-3,4-dihydroxytetrahydrofuran-2-yl)methoxy)methyl)phosphonic acid]",≤ 500 nM
4,"O=P(O)(O)COC[C@H]1O[C@@H](n2ncc3c(NCc4ccccc4Cl)nc(Cl)nc32)[C@H](O)[C@@H]1O [Example 10, ((((2R,3S,4R,5R)-5-(6-chloro-4-((2-chlorobenzyl)amino)-1H-pyrazolo[3,4-d]pyrimidin-1-yl)-3,4-dihydroxytetrahydrofuran-2-yl)methoxy)methyl)phosphonic acid]",≤ 500 nM
5,"O=P(O)(O)COC[C@H]1O[C@@H](n2ncc3c(Nc4ccccc4)nc(Cl)nc32)[C@H](O)[C@@H]1O [Example 75, ((((2R,3S,4R,5R)-5-(6-chloro-4-(phenylamino)-1H-pyrazolo[3,4-d]pyrimidin-1-yl)-3,4-dihydroxytetrahydrofuran-2-yl)methoxy)methyl)phosphonic acid]",≤ 500 nM
6,"C[C@@H]1CCC[C@@H]1Nc1nc(Cl)nc2c1cnn2[C@@H]1O[C@H](COCP(=O)(O)O)[C@@H](O)[C@H]1O [Example 104, ((((2R,3S,4R,5R)-5-(6-chloro-4-(((1S,2R)-2-methylcyclopentyl)amino)-1H-pyrazolo[3,4-d]pyrimidin-1-yl)-3,4-dihydroxytetrahydrofuran-2-yl)methoxy)methyl)phosphonic acid]",≤ 500 nM
7,"O=P(O)(O)CS(=O)(=O)C[C@H]1O[C@@H](n2ncc3c(NC4CCCC4)nc(Cl)nc32)[C@H](O)[C@@H]1O [Example 66, (((((2S,3S,4R,5R)-5-(6-chloro-4-(cyclopentylamino)-1H-pyrazolo[3,4-d]pyrimidin-1-yl)-3,4-dihydroxytetrahydrofuran-2-yl)methyl)sulfonyl)methyl)phosphonic acid]",≤ 500 nM
8,"COP(=O)(CP(=O)(O)O)OC[C@H]1O[C@@H](n2nnc3c(NC4CCCC4)nc(Cl)nc32)[C@H](O)[C@@H]1O (stereo partly drawn) [Example 106, (((((2R,3S,4R,5R)-5-(5-chloro-7-(cyclopentylamino)-3H-[1,2,3]triazolo[4,5-d]pyrimidin-3-yl)-3,4-dihydroxytetrahydrofuran-2-yl)methoxy)(methoxy)phosphoryl)methyl) phosphonic acid]",≤ 500 nM
9,"O=P(O)(O)COC[C@H]1O[C@@H](n2ncc3c(NC4CCCCC4)nc(Cl)nc32)[C@H](O)[C@@H]1O [Example 93, ((((2R,3S,4R,5R)-5-(6-chloro-4-(cyclohexylamino)-1H-pyrazolo[3,4-d]pyrimidin-1-yl)-3,4-dihydroxytetrahydrofuran-2-yl)methoxy)methyl)phosphonic acid]",≤ 500 nM
10,O=P(O)(O)COC[C@H]1O[C@@H](n2ncc3c(NCC4CC(F)(F)C4)nc(Cl)nc32)[C@H](O)[C@@H]1O [Example 86],≤ 500 nM
11,"O=P(O)(O)COC[C@H]1O[C@@H](n2ncc3c(NCCC4CC4)nc(Cl)nc32)[C@H](O)[C@@H]1O [Example 94, ((((2R,3S,4R,5R)-5-(6-chloro-4-((2-cyclopropylethyl)amino)-1H-pyrazolo[3,4-d]pyrimidin-1-yl)-3,4-dihydroxytetrahydrofuran-2-yl)methoxy)methyl)phosphonic acid]",≤ 500 nM
12,"C[C@H]1CCC[C@H]1Nc1nc(Cl)nc2c1cnn2[C@@H]1O[C@H](COCP(=O)(O)O)[C@@H](O)[C@H]1O [Example 105, ((((2R,3S,4R,5R)-5-(6-chloro-4-(((1R,2S)-2-methylcyclopentyl)amino)-1H-pyrazolo[3,4-d]pyrimidin-1-yl)-3,4-dihydroxytetrahydrofuran-2-yl)methoxy)methyl)phosphonic acid]",≤ 500 nM
13,"CN(c1nc(Cl)nc2c1cnn2[C@@H]1O[C@H](COCP(=O)(O)O)[C@@H](O)[C@H]1O)C1CCCC1 [Example 53, ((((2R,3S,4R,5R)-5-(6-chloro-4-(cyclopentyl(methyl)amino)-1H-pyrazolo[3,4-d]pyrimidin-1-yl)-3,4-dihydroxytetrahydrofuran-2-yl)methoxy)methyl)phosphonic acid]",≤ 500 nM
14,"O=P(O)(O)COC[C@H]1O[C@@H](n2nnc3c(NCc4ccccc4Cl)nc(Cl)nc32)[C@H](O)[C@@H]1O [Example 30, ((((2R,3S,4R,5R)-5-(5-chloro-7-((2-chlorobenzyl)pamino)-3H-[1,2,3]triazolo[4,5-d]pyrimidin-3-yl)-3,4-dihydroxytetrahydrofuran-2-yl)methoxy)methyl)phosphonic acid]",≤ 500 nM
15,"O=P(O)(O)COC[C@H]1O[C@@H](n2ncc3c(N4CCC4)nc(Cl)nc32)[C@H](O)[C@@H]1O [Example 83, ((((2R,3S,4R,5R)-5-(4-(azetidin-1-yl)-6-chloro-1H-pyrazolo[3,4-d]pyrimidin-1-yl)-3,4-dihydroxytetrahydrofuran-2-yl)methoxy)methyl)phosphonic acid]",≤ 500 nM
16,"CC1CCCC1Nc1nc(Cl)nc2c1cnn2[C@@H]1O[C@H](CS(=O)(=O)CP(=O)(O)O)[C@@H](O)[C@H]1O (stereo partly drawn) [Example 128, (((((2S,3S,4R,5R)-5-(6-chloro-4-((2-methylcyclopentyl)amino)-1H-pyrazolo[3,4-d]pyrimidin-1-yl)-3,4-dihydroxytetrahydrofuran-2-yl)methyl)sulfonyl)methyl)phosphonic acid]",≤ 500 nM
17,"CC(C)CNc1nc(Cl)nc2c1cnn2[C@@H]1O[C@H](COCP(=O)(O)O)[C@@H](O)[C@H]1O [Example 63, ((((2R,3S,4R,5R)-5-(6-chloro-4-(isobutylamino)-1H-pyrazolo[3,4-d]pyrimidin-1-yl)-3,4-dihydroxytetrahydrofuran-2-yl)methoxy)methyl)phosphonic acid]",≤ 500 nM
18,"O=P(O)(O)COC[C@H]1O[C@@H](n2ncc3c(NCC4CCCC4)nc(Cl)nc32)[C@H](O)[C@@H]1O [Example 124, ((((2R,3S,4R,5R)-5-(6-chloro-4-((cyclopentylmethyl)amino)-1H-pyrazolo[3,4-d]pyrimidin-1-yl)-3,4-dihydroxytetrahydrofuran-2-yl)methoxy)methyl)phosphonic acid]",≤ 500 nM
19,"Cc1nc(NCc2cccc(Cl)c2)c2cnn([C@@H]3O[C@H](COCP(=O)(O)O)[C@@H](O)[C@H]3O)c2n1 [Example 44, ((((2R,3S,4R,5R)-5-(4-((3-chlorobenzyl)amino)-6-methyl-1H-pyrazolo[3,4-d]pyrimidin-1-yl)-3,4-dihydroxytetrahydrofuran-2-yl)methoxy)methyl)phosphonic acid]",> 1000 nM
20,COCCN(c1nc(Cl)nc2c1cnn2[C@@H]1O[C@H](CS(=O)(=O)CP(=O)(O)O)[C@@H](O)[C@H]1O)C1CCCC1 [Example 133],≤ 500 nM
21,"O=P(O)(O)COC[C@H]1O[C@@H](n2ccc3c(NCC4CC4)nc(Cl)nc32)[C@H](O)[C@@H]1O [Example 15, ((((2R,3S,4R,5R)-5-(2-Chloro-4-((cyclopropylmethyl)amino)-7H-pyrrolo[2,3-d]pyrimidin-7-yl)-3,4-dihydroxytetrahydrofuran-2-yl)methoxy)methyl)phosphonic acid]",≤ 500 nM
22,"C[C@]1(O)C[C@@H](CNc2nc(Cl)nc3c2cnn3[C@@H]2O[C@H](COCP(=O)(O)O)[C@@H](O)[C@H]2O)C1 [Example 89, ((((2R,3S,4R,5R)-5-(6-chloro-4-((((1s,3S)-3-hydroxy-3-methylcyclobutyl)methyl)amino)-1H-pyrazolo[3,4-d]pyrimidin-1-yl)-3,4-dihydroxytetrahydrofuran-2-yl)methoxy)methyl)phosphonic acid]",≤ 500 nM
23,"O=P(O)(O)CCC[C@H]1O[C@@H](n2ncc3c(NC4CCCC4)nc(Cl)nc32)[C@H](O)[C@@H]1O [Example 101, (3-((2R,3S,4R,5R)-5-(6-Chloro-4-(cyclopentylamino)-1H-pyrazolo[3,4-d]pyrimidin-1-yl)-3,4-dihydroxytetrahydrofuran-2-yl)propyl)phosphonic acid]",500 to 1000 nM
24,"O=P(O)(O)CS(=O)(=O)C[C@H]1O[C@@H](n2ncc3c(NCC4CCC4)nc(Cl)nc32)[C@H](O)[C@@H]1O [Example 111, (((((2S,3S,4R,5R)-5-(6-chloro-4-((cyclobutylmethyl)amino)-1H-pyrazolo[3,4-d]pyrimidin-1-yl)-3,4-dihydroxytetrahydrofuran-2-yl)methyl)sulfonyl)methyl)phosphonic acid]",≤ 500 nM
25,"CN(Cc1ccccc1Cl)c1nc(Cl)nc2c1nnn2[C@@H]1O[C@H](COCP(=O)(O)O)[C@@H](O)[C@H]1O [Example 59, ((((2R,3S,4R,5R)-5-(5-chloro-7-((2-chlorobenzyl)(methyl)amino)-3H-[1,2,3]triazolo[4,5-d]pyrimidin-3-yl)-3,4-dihydroxytetrahydrofuran-2-yl)methoxy)methyl)phosphonic acid]",≤ 500 nM
26,"CN(c1nc(Cl)nc2c1cnn2[C@@H]1O[C@H](CCP(=O)(O)O)[C@@H](O)[C@H]1O)[C@H]1CCc2ccccc21 [Example 4, (2-((2R,3S,4R,5R)-5-(6-Chloro-4-(((S)-2,3-dihydro-1H-inden-1-yl)(methyl)amino)-1H-pyrazolo[3,4-d]pyrimidin-1-yl)-3,4-dihydroxytetrahydrofuran-2-yl)ethyl)phosphonic acid]",> 1000 nM
27,"O=P(O)(O)COC[C@H]1O[C@@H](n2ncc3c(NCc4cccc(C(F)(F)F)c4)nc(Cl)nc32)[C@H](O)[C@@H]1O [Example 32, ((((2R,3S,4R,5R)-5-(6-chloro-4-((3-(trifluoromethyl)benzyl)amino)-1H-pyrazolo[3,4-d]pyrimidin-1-yl)-3,4-dihydroxytetrahydrofuran-2-yl)methoxy)methyl)phosphonic acid]",≤ 500 nM
